# Data reported in ChEMBL document CHEMBL1133690, “Discovery of a potent, orally bioavailable beta(3) adrenergic receptor agonist, (R)-N-[4-[2-[[2-hydroxy-2-(3-pyridinyl)ethyl]amino]ethyl]phenyl]-4-[4 -[4-(trifluoromethyl)phenyl]thiazol-2-yl]benzenesulfonamide” (J Med Chem, 2000).
# Columns and labels:
# [1] = Half life was measured in dog; assay type: ADME, organism-based, Canis lupus familiaris; conditions: in vivo
# [2] = Oral bioavailability in dog; assay type: ADME, organism-based, Canis lupus familiaris; conditions: in vivo
# [3] = Oral bioavailability in rat (dose 10 mg/kg p.o. and 3 mg/kg i.v.); assay type: ADME, organism-based; conditions: in vivo
# [4] = Area under curve determined in dogs after intravenous administration of 3 mg/kg; assay type: ADME, organism-based, Canis lupus familiaris; parameters: dose 3 mg/kg, route intravenous; conditions: dog, in vivo
# [5] = Area under curve determined in dogs after oral administration of 10 mg/kg; assay type: ADME, organism-based, Canis lupus familiaris; parameters: dose 10 mg/kg, route oral; conditions: dog, in vivo
# [6] = Volume distribution (Vdss) was measured in dog; assay type: ADME, organism-based, Canis lupus familiaris; conditions: in vivo, read-out: Vdss
# [7] = Plasma clearance was measured in dog; assay type: ADME, organism-based, Canis lupus familiaris; conditions: read-out: Clp
# [8] = target: T1, Beta-3 adrenergic receptor (Homo sapiens, UniProt P13945); assay type: cell-based, CHO
# Target sequence in this assay (P13945 whole entry): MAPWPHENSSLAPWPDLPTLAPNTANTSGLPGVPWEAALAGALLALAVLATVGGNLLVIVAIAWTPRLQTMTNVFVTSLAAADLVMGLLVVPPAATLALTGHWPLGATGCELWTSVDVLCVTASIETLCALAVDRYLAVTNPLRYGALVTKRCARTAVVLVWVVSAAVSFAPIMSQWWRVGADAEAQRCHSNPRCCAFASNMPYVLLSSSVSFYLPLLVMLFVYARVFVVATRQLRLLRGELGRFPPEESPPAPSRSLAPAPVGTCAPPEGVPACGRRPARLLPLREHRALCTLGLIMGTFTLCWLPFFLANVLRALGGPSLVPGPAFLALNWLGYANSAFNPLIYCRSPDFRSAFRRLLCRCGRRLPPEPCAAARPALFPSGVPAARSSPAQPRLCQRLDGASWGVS
# Monkey = test: Effective dose for hyperglycerolemia producing increase in serum glycerol accompained by tachycardia in anesthetized rhesus monkeys; assay type: functional; conditions: Cercopithecidae, in Macaca mulatta
# [9] = target: T1, Beta-3 adrenergic receptor; test: In vitro functional efficacy as increased cAMP in chinese hamster ovary (CHO) cells expressing human beta-3 receptor; assay type: cell-based
# Target sequence in this assay (P13945 whole entry): as above
# [10] = target: T1, Beta-3 adrenergic receptor; test: Agonistic efficacy at human beta 3 adrenergic receptor as percent adenylyl cyclase activation relative to isoproterenol; assay type: functional
# Target sequence in this assay (P13945 whole entry, looked up): as the sequence (P13945 whole entry) above
# [11] = target: T2, Beta-1 adrenergic receptor (Homo sapiens, UniProt P08588); test: In vitro functional efficacy in stimulating increase in cAMP in chinese hamster ovary (CHO) cells expressing the cloned human beta-1 receptor.; assay type: cell-based
# Target sequence in this assay (P08588 whole entry): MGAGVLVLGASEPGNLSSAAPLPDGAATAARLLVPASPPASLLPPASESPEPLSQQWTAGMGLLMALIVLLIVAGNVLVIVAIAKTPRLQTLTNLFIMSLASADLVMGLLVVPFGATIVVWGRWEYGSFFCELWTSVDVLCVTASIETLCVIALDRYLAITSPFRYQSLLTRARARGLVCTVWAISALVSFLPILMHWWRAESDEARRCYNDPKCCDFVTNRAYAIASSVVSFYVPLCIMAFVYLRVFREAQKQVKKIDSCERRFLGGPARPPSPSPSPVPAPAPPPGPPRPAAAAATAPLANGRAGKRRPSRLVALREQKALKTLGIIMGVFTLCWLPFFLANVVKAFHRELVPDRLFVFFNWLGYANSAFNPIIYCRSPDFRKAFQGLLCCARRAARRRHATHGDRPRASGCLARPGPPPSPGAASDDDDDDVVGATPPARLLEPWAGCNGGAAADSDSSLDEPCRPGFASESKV
# [12] = target: T2, Beta-1 adrenergic receptor; test: Agonistic efficacy at human beta 1 adrenergic receptor was assessed from adenylyl cyclase activation given as % of the maximum stimulation with isoproterenol at 10 uM; assay type: functional
# Target sequence in this assay (P08588 whole entry, looked up): as the sequence (P08588 whole entry) above
# [13] = target: T3, Beta-2 adrenergic receptor (Homo sapiens, UniProt P07550); test: In vitro functional efficacy in stimulating increase in cAMP in chinese hamster ovary (CHO) cells expressing the cloned human beta-2 receptor.; assay type: cell-based
# Target sequence in this assay (P07550 whole entry): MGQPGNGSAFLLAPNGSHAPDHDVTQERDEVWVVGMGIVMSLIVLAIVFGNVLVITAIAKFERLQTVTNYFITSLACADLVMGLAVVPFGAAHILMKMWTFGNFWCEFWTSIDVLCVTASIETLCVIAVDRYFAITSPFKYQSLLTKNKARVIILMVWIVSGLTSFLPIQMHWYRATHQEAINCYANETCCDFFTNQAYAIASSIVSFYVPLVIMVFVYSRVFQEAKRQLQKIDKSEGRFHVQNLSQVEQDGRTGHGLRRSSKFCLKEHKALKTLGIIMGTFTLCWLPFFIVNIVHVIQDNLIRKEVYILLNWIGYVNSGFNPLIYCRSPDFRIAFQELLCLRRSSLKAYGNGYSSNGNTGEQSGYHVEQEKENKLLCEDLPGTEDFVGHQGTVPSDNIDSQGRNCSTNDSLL
# [14] = target: T3, Beta-2 adrenergic receptor; test: Agonistic efficacy at human beta 2 adrenergic receptor was assessed from adenylyl cyclase activation given as % of the maximum stimulation with isoproterenol; assay type: functional
# Target sequence in this assay (P07550 whole entry, looked up): as the sequence (P07550 whole entry) above
# [15] = target: T3, Beta-2 adrenergic receptor; test: biochemical
# Target sequence in this assay (P07550 whole entry): as above
# Description: Binding affinity was evaluated on chinese hamster ovary (CHO) cells expressing the cloned human beta-2 adrenergic receptor in the presence of [125I]- iodocyanopindolol.
# [16] = target: T2, Beta-1 adrenergic receptor; test: biochemical
# Target sequence in this assay (P08588 whole entry): as the sequence (P08588 whole entry) above
# Description: Binding affinity was evaluated on chinese hamster ovary (CHO) cells expressing the cloned human beta-1 adrenergic receptor in the presence of [125I]- iodocyanopindolol.
# [17] = Volume of distribution (Vdss) was measured in dog; assay type: ADME, organism-based, Canis lupus familiaris; conditions: in vivo, read-out: Vdss
half-life [1],bioavailability [2],bioavailability [3],AUC [4],AUC [5],Vd [6],clearance [7],IC50 [8],EC50 [9],ACT [10],EC50 [11],ACT [12],EC50 [13],ACT [14],IC50 [15],IC50 [16],Vd [17],Compound,ED50 (Monkey)
10.3 h,53%,7%,3530 ng·h/mL,6280 ng·h/mL,12.8 L/kg,14.3 mL/min/kg,0.03 µM,0.0043 µM,93%,2.7 µM,24%,1.4 µM,18%,1.2 µM,8.4 µM,–,O=S(=O)(Nc1ccc(CCNC[C@H](O)c2cccnc2)cc1)c1ccc(-c2nc(-c3ccc(OC(F)(F)F)cc3)cs2)cc1,0.14 mg/kg
–,–,–,–,–,–,–,–,0.0069 µM,100%,–,17%,–,–,0.98 µM,1.8 µM,–,O=S(=O)(Nc1ccc(CCNC[C@H](O)c2cccnc2)cc1)c1ccc(-c2nc(-c3cccc(C(F)(F)F)c3)cs2)cc1,–
7.5 h,36%,–,1720 ng·h/mL,2070 ng·h/mL,–,29.3 mL/min/kg,0.02 µM,0.0071 µM,92%,2.6 µM,–,1.8 µM,12%,1.7 µM,1.7 µM,19 L/kg,O=S(=O)(Nc1ccc(CCNC[C@H](O)c2cccnc2)cc1)c1ccc(-c2nc(-c3ccc(F)c(F)c3)cs2)cc1,–
13.5 h,38%,17%,1930 ng·h/mL,2270 ng·h/mL,31.3 L/kg,26.8 mL/min/kg,0.046 µM,–,94%,4.8 µM,24%,2.4 µM,–,–,–,–,O=S(=O)(Nc1ccc(CCNC[C@H](O)c2cccnc2)cc1)c1ccc(-c2nc(-c3ccc(C(F)(F)F)cc3)cs2)cc1,0.26 mg/kg
–,–,–,–,–,–,–,–,0.019 µM,87%,–,7%,–,–,2.6 µM,2.5 µM,–,O=S(=O)(Nc1ccc(CCNC[C@H](O)c2cccnc2)cc1)c1ccc(-c2nc(-c3ccc(F)cc3F)cs2)cc1,–
–,–,–,–,–,–,–,–,0.053 µM,82%,–,–,–,–,1.8 µM,1.9 µM,–,O=S(=O)(Nc1ccc(CCNC[C@H](O)c2cccnc2)cc1)c1ccc(-c2nc(-c3ccccc3C(F)(F)F)cs2)cc1,–
8 h,27%,–,2470 ng·h/mL,2230 ng·h/mL,14.1 L/kg,20.5 mL/min/kg,–,0.0063 µM,100%,–,20%,–,–,5 µM,2 µM,–,O=S(=O)(Nc1ccc(CCNC[C@H](O)c2cccnc2)cc1)c1ccc(-c2nc(-c3cc(F)c(F)c(F)c3)cs2)cc1,–

Compound,half-life [1],bioavailability [2],bioavailability [3],AUC [4],AUC [5],Vd [6],clearance [7],IC50 [8],EC50 [9],ACT [10],EC50 [11],ACT [12],EC50 [13],ACT [14],IC50 [15],IC50 [16],Vd [17],ED50 (Monkey)
O=S(=O)(Nc1ccc(CCNC[C@H](O)c2cccnc2)cc1)c1ccc(-c2nc(-c3cccc(F)c3F)cs2)cc1,–,–,–,–,–,–,–,–,0.0076 µM,99%,–,6%,–,–,0.76 µM,2.6 µM,–,–
